The results in this text go back to US7999119B2, “Compounds having CRTH2 antagonist activity” (Oxagen Limited, priority 2006, dated 2011).

The assay concerns PGD2 induced eosinophil shape change. Put plainly: Human whole blood eosinophil shape change assay. Format: cell-based. Particulars: Homo sapiens, Eosinophil, 10 nm PGD2-induced eosinophil shape change, human whole blood; read-out: Whole Blood IC50. On the procedure:
Human Whole Blood Eosinophil Shape Change Assay
Compounds 1 to 3 were assayed for their effect on PGD2 induced eosinophil shape change and were compared with Comparator Compounds A to G.
Shape Change Assay in Whole Blood
Compounds (1 μl, 200× final concentration) were added directly to 200 μl whole blood, mixed well and incubated for 15 min, 37° C., 5% CO2. After this time, cell shape was fixed by addition of 300 μl Cytofix™ buffer (BD Biosciences), 15 min on ice. 10 ml RBC lysis buffer was added to the fixed cells, incubated 5 min, at room temperature and centrifuged, 300×g for 5 min. Supernatant (containing lysed red cells) was removed and the lysis step was repeated. Leukocytes were resuspended in 250 μl RPMI/10% FCS and shape change analysed by FACS. Eosinophils were gated out based on their autofluorescence and 2000 eosinophil events were counted per sample. Data were analysed in triplicate.

pIC50: −log10 of the molar value.

Consider `Cc1c(Cc2ccc(S(=O)(=O)c3ccc(F)cc3)cc2)c2cc(F)ccc2n1CC(=O)O` [Compound E, 2-{5-Fluoro-3-[4-(4-fluorophenylsulfonyl)benzyl]-2-methyl-1H-indol-1-yl}acetic acid], for which the pIC50 is 7.15. To `Cc1c(Cc2cccc(S(=O)(=O)c3ccc(Cl)cc3)c2)c2cc(F)ccc2n1CC(=O)O` [Compound G, 2-{3-[3-(4-chlorophenylsulfonyl)benzyl]-5-fluoro-2-methyl-1H-indol-1-yl}acetic acid] belongs 5.33; to `Cc1c(Cc2cccc(S(=O)(=O)c3ccccc3)c2)c2cc(F)ccc2n1CC(=O)O` [Compound F, 2-{5-Fluoro-2-methyl-3-[3-(phenylsulfonyl)benzyl]-1H-indol-1-yl}acetic acid], 5.82; to `Cc1c(Cc2ccc(S(=O)(=O)c3ccc(Cl)cc3)cc2)c2cc(F)ccc2n1CC(=O)O` [Compound D, 2-{3-[4-(4-chlorophenylsulfonyl)benzyl]-5-fluoro-2-methyl-1H-indol-1-yl}acetic acid], 6.31. On to `Cc1c(Cc2ccc(S(=O)(=O)c3ccccc3)cc2)c2cc(F)ccc2n1CC(=O)O` [Compound C, 2-{5-Fluoro-2-methyl-3-[4-(phenylsulfonyl)benzyl]-1H-indol-1-yl}acetic acid], for which the pIC50 is 6.56.
